Source: patent publication US8741836B2, “Polypeptides” (Novo Nordisk A/S, priority 2011, dated 2014)
Starred links: 1 amine or outer side, 2 acyl side, 3 side chain; linkers in the order of their positions; H or OH if unused. Positions of bridges follow the written chain, without caps; N, C: chain ends. Residues, ends and D or L forms follow the SMILES beside them. Groups on a side chain read outwards from the residue. *: point of attachment. C20 diacid = O=C(O)CCCCCCCCCCCCCCCCCCC(=O)*; C18 diacid = O=C(O)CCCCCCCCCCCCCCCCC(=O)*; γGlu = O=C(O)[C@H](CCC(=O)[*:2])N[*:1]; AEEA = NCCOCCOCC(=O)O

Test: Assay (III) ThT fibrillation assay for physical stability
Type: physicochemical
Conditions: for ThT pH 4.0 lag time: pH 4.0, ThT fibrillation assay
In short: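 Freshly prepared, pH-adjusted formulations with 1 μM ThT incubated at 37 °C under 960 rpm orbital shaking (1 mm), fluorescence (ex 444, em 485 nm) read every 20 min. […] Peptide content before and after measured by reverse-phase HPLC against pramlintide standard.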

Structure (SMILES) | ThT pH 4.0 lag time (physical stability in fibrillogenesis assay) (pH 4.0) [h] | ThT pH 4.0 lag time [h]
CC[C@H](C)[C@H](NC(=O)[C@@H]1CCCN1C(=O)CNC(=O)[C@H](Cc1ccccc1)NC(=O)[C@H](CC(N)=O)NC(=O)[C@H](CO)NC(=O)[C@H](CO)NC(=O)[C@H](CO)NC(=O)[C@H](Cc1c[nH]cn1)NC(=O)[C@H](CCCCNC(=O)COCCOCCNC(=O)COCCOCCNC(=O)CC[C@H](NC(=O)CCCCCCCCCCCCCCCCC(=O)O)C(=O)O)NC(=O)[C@H](CC(C)C)NC(=O)[C@H](Cc1ccccc1)NC(=O)[C@H](CCC(=O)O)NC(=O)[C@H](C)NC(=O)[C@H](CC(C)C)NC(=O)[C@H](CCCNC(=N)N)NC(=O)[C@H](CCC(N)=O)NC(=O)[C@@H](NC(=O)[C@H](C)NC(=O)[C@@H]1CSSC[C@H](NC(=O)[C@@H](N)CCCCN)C(=O)N[C@@H](CC(N)=O)C(=O)N[C@@H]([C@@H](C)O)C(=O)N[C@@H](C)C(=O)N[C@@H]([C@@H](C)O)C(=O)N1)[C@@H](C)O)C(=O)N[C@@H](CC(C)C)C(=O)N1CCC[C@H]1C(=O)N1CCC[C@H]1C(=O)N[C@H](C(=O)N[C@@H](CC(N)=O)C(=O)N[C@H](C(=O)NCC(=O)N[C@@H](CO)C(=O)N[C@@H](CCC(=O)O)C(=O)N[C@H](C(=O)N[C@@H](Cc1ccc(O)cc1)C(N)=O)[C@@H](C)O)C(C)C)[C@@H](C)O [Example 83, N-epsilon17-[2-(2-{2-[2-(2-{2-[(S)-4-Carboxy-4-(17-carboxyheptadecanoylamino)butyrylamino]ethoxy}ethoxy)acetylamino]ethoxy}ethoxy)acetyl]-[Glu14,Lys17,Ser21,Glu35]-pramlintide] (H-KCNTATCATQRLAEFLK([AEEA-AEEA-γGlu-C18 diacid])HSSSNFGPILPPTNVGSETY-NH2; disulfide 2-7 (inferred); N-terminus assumed) | >45 | >45
CC[C@H](C)[C@H](NC(=O)[C@@H]1CCCN1C(=O)CNC(=O)[C@H](Cc1ccccc1)NC(=O)[C@H](CC(N)=O)NC(=O)[C@H](CC(N)=O)NC(=O)[C@H](CO)NC(=O)[C@H](CO)NC(=O)[C@H](Cc1c[nH]cn1)NC(=O)[C@H](Cc1c[nH]cn1)NC(=O)[C@H](CC(C)C)NC(=O)[C@H](Cc1ccccc1)NC(=O)[C@H](CCC(=O)O)NC(=O)[C@H](C)NC(=O)[C@H](CC(C)C)NC(=O)[C@H](CCCNC(=N)N)NC(=O)[C@H](CCC(N)=O)NC(=O)[C@@H](NC(=O)[C@H](C)NC(=O)[C@@H]1CSSC[C@H](NC(=O)[C@H](CCCCN)NC(=O)[C@H](CO)NC(=O)CC[C@H](NC(=O)CCCCCCCCCCCCCCCCCCC(=O)O)C(=O)O)C(=O)N[C@@H](CC(N)=O)C(=O)N[C@@H]([C@@H](C)O)C(=O)N[C@@H](C)C(=O)N[C@@H]([C@@H](C)O)C(=O)N1)[C@@H](C)O)C(=O)N[C@@H](CC(C)C)C(=O)N1CCC[C@H]1C(=O)N1CCC[C@H]1C(=O)N[C@H](C(=O)N[C@@H](CC(N)=O)C(=O)N[C@H](C(=O)NCC(=O)N[C@@H](CO)C(=O)N[C@@H](Cc1c[nH]cn1)C(=O)N[C@H](C(=O)N[C@@H](Cc1ccc(O)cc1)C(N)=O)[C@@H](C)O)C(C)C)[C@@H](C)O [Example 85, N-alpha-[(S)-4-Carboxy-4-(19-carboxynonadecanoylamino)butyryl]-Ser-[Glu14,His17,His35]-pramlintide] ({C20 diacid-γGlu}-SKCNTATCATQRLAEFLHHSSNNFGPILPPTNVGSHTY-NH2; disulfide 3-8) |  | >45
